| melting point [°C] | Structure (SMILES) |
| --- | --- |
| > 275 | CCOC(=O)Nc1nc(C)c(-c2nc3ccccc3c(=O)n2-c2ccc(C(C)=O)cc2)s1 |
| 187 to 188 | CS(=O)(=O)Nc1ccc(NC(=O)CCCc2ccc(N=C(N)c3cccs3)cc2)cc1 |
| 223 to 224 | CC1(C)Oc2ccc(-n3c(=O)[nH]c4cccnc43)cc2O1 |
| 169 to 171 | O=[N+]([O-])c1ccc(-c2nc(-c3cccs3)no2)cc1 |
| 182 to 185 | CN1C2CCCC1CC(NC(=O)c1cccc3oc(-c4ccccc4)nc13)C2 (stereo unspecified) |
| 136 to 140 | Cc1ccccc1C(=O)Nc1ccc(C(=O)N2CCCC(O)(CO)c3ccccc32)cc1 (stereo unspecified) |
| 193 to 195 | Cc1nc2c(N)nc3ccccc3c2n1CCOCCNC(=O)Nc1ccccc1 |
| 152 to 155 | COc1cc(-c2csc(NS(=O)(=O)c3ccccc3)n2)ccc1OCc1ccccc1 |
| 135 to 137 | CCSc1ccc(C(=O)NCc2ccc3c(c2)C(=O)N(C2(C)CCC(=O)NC2=O)C3=O)cc1 (stereo unspecified) |
| 253 to 254 | CC(C)n1nc(-c2cc(-c3ncnn3C)c(N)nc2-c2ccccc2)ccc1=O |
| 206 to 209 | O=C1CCn2c(-c3ccccc3)nc3c(Cl)ccc1c32 |
| 140 to 142 | COC(=O)C(CNC(=O)C1CC1)c1cccc2ccccc12 (stereo unspecified) |
| 111 to 113 | Fc1ccc(OC2CN(CCc3c[nH]c4ccccc34)C2)cc1 |
| 146 to 148 | O=C(O)c1nccc(-c2ccccc2)c1C(=O)O |
| 135 to 136 | COc1ccc2c(=O)c(CSC)cn(C)c2c1 |
| 168 to 170 | CS(=O)(=O)c1ccc(-c2sc(C(F)(F)F)nc2-c2ccc(F)cc2)cc1 |
| 88 | N#Cc1ccc(C=S)c(-c2ccccc2)c1 |
| 271 | Cc1ccc(N2C(=O)C(O)=C(C(=O)c3cccc(Cl)c3)C2c2ccc(C(C)C)cc2)nn1 (stereo unspecified) |
| 247 to 249 | Cc1nn(C)c(Cl)c1S(=O)(=O)N1CCC2(CC1)CSC1=C(O2)c2ccccc2C(=O)C1=O |
| 144 to 145 | COc1ccc(-c2cc(=O)n(CC=Cc3ccc(Cl)cc3)nc2-c2ccc(OC)c(F)c2)cc1 |
| 143 to 144 | COc1ccc(CCc2ccc(NC(=O)C(=O)c3cccc(C(C)(C)C)c3O)cc2)cc1OC |
| 146 to 149 | Nc1ccc(Nc2cccc(O)c2)cc1 |
| 130 to 132 | CC(C)(OCc1cc2cc(Cl)ccc2n1S(=O)(=O)c1ccc2c(c1)CCO2)C(=O)O |
| 235 to 237 | C#CCN1C(=O)c2cccc3cccc(c23)C1=O |
| 235 to 237 | COC(=O)c1ccc(Cn2c(=O)c3cc(C(=O)NCc4ccc(OC)cc4)sc3n(C)c2=O)cc1 |
| 124 to 125 | COc1ccc(CCc2ccc(NC(=O)C(=O)c3ccccc3O)cc2)cc1OC |
| 348 to 350 | COc1ccc2[nH]c3cc(-c4ccccc4C#N)c4c(c3c2c1)C(=O)NC4=O |
| 70 to 72 | C=CC1C(=O)N(c2ccc(OC)cc2)C1C(=O)OCC (stereo unspecified) |
| 134 to 136 | Clc1ccc(CCC(Cn2ccnc2)Sc2cccc(Cl)c2Cl)cc1 (stereo unspecified) |

The next lines start with the compound.

| Structure (SMILES) | melting point [°C] |
| --- | --- |
| COC(=O)c1nc(-c2ccccn2)n2c1CN=C(c1ccccc1Cl)c1cc(Cl)ccc1-2 | 282 to 285 |
| Cc1cc2c(c3ccc(=O)[nH]c13)OC(CNC(=O)CN(C)C)C2 (stereo unspecified) | > 250 |
| CN1Cc2c(-c3nnc(CN)o3)ncn2-c2ccsc2C1=O | 217 to 219 |
| CCCCCCCCCCCc1nnc2n1-c1sc(CC)cc1C(c1ccc(O)cc1)=NC2 | 164 to 166 |
| CC(C)(C(=O)O)c1cn2nc(CCCN3CCN(C(c4ccccc4)c4ccccc4)CC3)ccc2n1 | 176 to 178 |
| CSc1nc(=O)n(C(C)C)c(=O)[nH]1 | 188 to 190 |
| COC(=O)c1cn2c(n1)COc1ccc(Cl)cc1-2 | 239 to 240 |
| COC(=O)c1ccc(OCC2CC(=O)N(c3ccc(OCC(C)C)cc3)C2)cc1 (stereo unspecified) | 118 |
| CCC(C)(C)NC(=S)Nc1cc(F)cc(Cl)c1 | 116 to 118 |
| O=S1(=O)N=CN(C2CC2)c2cc(Br)c(F)cc21 | 218 to 219 |
| COc1cc(Nc2c(C#N)cnc3cc(C#Cc4cccnc4)sc23)c(Cl)cc1Cl | 249 to 250 |
| Oc1cc(Br)cc(O)c1F | 83 to 86 |
| COc1ccc(-c2c(C)c3ccc(OC(C)=O)c(O)c3oc2=O)c(OC)c1 | 140 to 141 |
| C=CCOc1ccc(S(=O)(=O)N2CCN(C)CC2)cc1-c1nc2c(CCC)nn(C)c2c(=O)[nH]1 | 151 to 153 |
| CC12C=CCC1C1CCC3=CC(=O)CCC3C1CC2 (stereo unspecified) | 67 to 71 |
| COc1ccc(CCNC(=O)C=Cc2ccc(C)cc2C)cc1S(N)(=O)=O | 202 |
| CCCN(CCC)Cc1cnc(-c2ncn3c2CN(C)C(=O)c2cc(F)ccc2-3)o1 | 123 to 125 |
| Cc1c(CCC(=O)c2c[nH]c3ccccc23)ncn1C(c1ccccc1)(c1ccccc1)c1ccccc1 | 225 to 227 |
| O=[N+]([O-])c1ccc(F)cc1CBr | 38 to 41 |
| Cc1ccc(F)cc1C(=O)Nc1ccc(C(=O)N2Cc3ccnn3Cc3ccccc32)cn1 | 250 to 260 |
| CCc1ccnc2c([N+](=O)[O-])cc(OC)cc12 | 158 to 159 |

| Structure (SMILES) | melting point [°C] |
| --- | --- |
| CNC(=O)N1N=C(c2ccc(N)cc2)c2cc3c(cc2CC1C)OCO3 (stereo unspecified) | 133 to 135 |
| Nc1nnc(-c2cc3c(Oc4ccc(Br)cc4)cncc3s2)o1 | 270 to 273 |
| Cc1ccc2c(c1)N(C(=O)NCCN1CCC(CCCN(C(C)C)C(C)C)CC1)c1ncccc1NC2=O | 160 to 162 |
| Cc1ccc(S(=O)(=O)CCCC(=O)c2ccc(F)cc2)cc1 | 114 to 116 |
| COc1c(C)cccc1C(=N)N | 72 to 74 |
| CCOC(=O)c1onc(O)c1C | 133 to 134 |
| c1cc(Oc2ccc3c(c2)CCN3)ccn1 | 116 to 118 |
| CCCn1nc(C(C)C)c(C(=O)O)c1Cc1ccc(-c2ccccc2-c2nnn(C(c3ccccc3)(c3ccccc3)c3ccccc3)n2)cc1 | 136 to 139 |
| O=C(O)CCCCCNC(=O)C(F)(F)F | 90 to 91 |
| O=C(NCCCBr)c1cnn(-c2nc(-c3cccc(C(F)(F)F)c3)cs2)c1C(F)(F)F | 187 to 190 |
| CCOC(=O)c1c(C(F)(F)F)nc2ccc(OC)cc2c1O | 184 |
| Cc1csc(C(=O)N2CCCC2)c1-n1cccc1 | 178 |
| CCCn1c(CCOC)nc2c(N)nc3cc(OCCCS(C)(=O)=O)ccc3c21 | 170 to 171 |
| O=C(NC1CCN(CCCc2ccc(F)cc2)C1)C12CC3CC(CC(C3)C1)C2 (stereo unspecified) | 114 to 115 |
| Cc1cccc(Cl)c1N1CCCN(C)C1=S | 164 to 165 |
| CCCN1OCC(=Cc2cc(C(C)(C)C)c(O)c(C(C)(C)C)c2)C1=O | 194 to 196 |
| N#Cc1cnn(-c2ccc(Cl)c(Cl)c2Cl)c1N(C(=O)Oc1ccccc1)C(=O)Oc1ccccc1 | 206 to 208 |
| CC1CN(c2ccc(F)cc2)N=C1NC=O (stereo unspecified) | 166 to 168 |
| c1cnc2c(c1)NCC2 | 63 |
| CNC(=O)C(=NOC)c1ccccc1COc1ncc(C)cc1Br | 104 to 105 |
| COC(=O)c1ccc2oc(CCCCc3cc4cc(C(=O)OC)ccc4o3)cc2c1 | 130 to 131 |

From a melting point compilation (Tetko et al.; mined from patent text by program, amines drawn as free bases though some values may be those of a salt)
